Columns and labels:
Assay in all cases: relative viability (nuclei count vs DMSO), 5 days (fraction); higher = more cells survive
[1] = system: LU99A
How it was run: (§1)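 Nuclei were stained with Hoechst during a one-step fixation (final 0.05% Triton X-100, 1% formaldehyde, 1 ug/ml Hoechst) carried out 5 days after dosing, then counted on 4× images. The cells, lung cancer lines in 1536-well plates, had been dosed by pin tool the day after seeding with one drug alone or a fixed anchor-drug dose plus five library-drug doses (not always all listed) in √10 steps. Relative viability is the nuclei count in treated wells divided by that in vehicle wells, and each value is the median of duplicate plates.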

[2] = system: NCI-H1793
How it was run: as §1

[3] = system: RERF-LC-KJ
How it was run: as §1

[4] = system: NCI-H2405
How it was run: as §1

[5] = system: SW 1573
How it was run: as §1

[6] = system: NCI-H460
How it was run: as §1

[7] = system: NCI-H1666
How it was run: as §1

[8] = system: BEN
How it was run: as §1

[9] = system: NCI-H1915
How it was run: as §1

[10] = system: NCI-H1975
How it was run: as §1

[11] = system: NCI-H2228
How it was run: as §1

[12] = system: NCI-H1395
How it was run: as §1

[13] = system: NCI-H2023
How it was run: as §1

[14] = system: HARA
How it was run: as §1

[15] = system: EKVX
How it was run: as §1

[16] = system: A-427
How it was run: as §1

[17] = system: NCI-H1650
How it was run: as §1

[18] = system: LOU-NH91
How it was run: as §1

[19] = system: NCI-H838
How it was run: as §1

[20] = system: COR-L23
How it was run: as §1

[21] = system: NCI-H1993
How it was run: as §1

Structure (SMILES): COCC1(CO)C(=O)C2CCN1CC2 (stereo unspecified) [PRIMA-1MET] + CC1(C)CCC(c2ccc(Cl)cc2)=C(CN2CCN(c3ccc(C(=O)NS(=O)(=O)c4ccc(N[C@H](CCN5CCOCC5)CSc5ccccc5)c(S(=O)(=O)C(F)(F)F)c4)cc3)CC2)C1 [Navitoclax] (partner 0.5 µM)
- relative viability ([1]; first compound 0.2 µM): 1.06
- relative viability ([1]; first compound 0.6325 µM): 0.611
- relative viability ([1]; first compound 2 µM): 0.898
- relative viability ([1]; first compound 6.325 µM): 0.752
- relative viability ([1]; first compound 20 µM): 0.101
- relative viability ([2]; first compound 0.2 µM): 0.576
- relative viability ([2]; first compound 0.6325 µM): 0.446
- relative viability ([2]; first compound 6.325 µM): 0.609
- relative viability ([2]; first compound 20 µM): 0.49
- relative viability ([3]; first compound 0.2 µM): 1.33
- relative viability ([3]; first compound 0.6325 µM): 0.929
- relative viability ([3]; first compound 2 µM): 0.833
- relative viability ([3]; first compound 6.325 µM): 0.837
- relative viability ([3]; first compound 20 µM): 0.814
- relative viability ([4]; first compound 0.2 µM): 0.676
- relative viability ([4]; first compound 0.6325 µM): 0.989
- relative viability ([4]; first compound 6.325 µM): 0.52
- relative viability ([4]; first compound 20 µM): 0.078
- relative viability ([5]; first compound 0.2 µM): 1.12
- relative viability ([5]; first compound 0.6325 µM): 0.614
- relative viability ([5]; first compound 2 µM): 0.789
- relative viability ([5]; first compound 6.325 µM): 0.0618
- relative viability ([5]; first compound 20 µM): 0.034
- relative viability ([6]; first compound 0.2 µM): 1.44
- relative viability ([6]; first compound 0.6325 µM): 0.971
- relative viability ([6]; first compound 2 µM): 1.06
- relative viability ([6]; first compound 6.325 µM): 0.528
- relative viability ([6]; first compound 20 µM): 0.0099
- relative viability ([7]; first compound 0.2 µM): 1.01
- relative viability ([7]; first compound 0.6325 µM): 0.858
- relative viability ([7]; first compound 2 µM): 1.03
- relative viability ([7]; first compound 6.325 µM): 0.895
- relative viability ([7]; first compound 20 µM): 0.249
- relative viability ([8]; first compound 0.2 µM): 0.0631
- relative viability ([8]; first compound 0.6325 µM): 0.0967
- relative viability ([8]; first compound 6.325 µM): 0.0571
- relative viability ([8]; first compound 20 µM): 0.0562
- relative viability ([9]; first compound 0.2 µM): 0.766
- relative viability ([9]; first compound 0.6325 µM): 0.586
- relative viability ([9]; first compound 2 µM): 0.642
- relative viability ([9]; first compound 6.325 µM): 0.773
- relative viability ([9]; first compound 20 µM): 0.778
- relative viability ([10]; first compound 0.2 µM): 1.13
- relative viability ([10]; first compound 0.6325 µM): 1.03
- relative viability ([10]; first compound 2 µM): 1.12
- relative viability ([10]; first compound 6.325 µM): 1.21
- relative viability ([10]; first compound 20 µM): 0.96
- relative viability ([11]; first compound 0.2 µM): 0.9
- relative viability ([11]; first compound 0.6325 µM): 0.839
- relative viability ([11]; first compound 2 µM): 1.09
- relative viability ([11]; first compound 6.325 µM): 0.62
- relative viability ([11]; first compound 20 µM): 0.0661
- relative viability ([12]; first compound 0.2 µM): 1.17
- relative viability ([12]; first compound 0.6325 µM): 1.49
- relative viability ([12]; first compound 2 µM): 1.02
- relative viability ([12]; first compound 6.325 µM): 1.24
- relative viability ([12]; first compound 20 µM): 0.44
- relative viability ([13]; first compound 0.2 µM): 1.04
- relative viability ([13]; first compound 0.6325 µM): 0.999
- relative viability ([13]; first compound 2 µM): 0.992
- relative viability ([13]; first compound 6.325 µM): 1.07
- relative viability ([13]; first compound 20 µM): 0.977
- relative viability ([14]; first compound 0.2 µM): 1.22
- relative viability ([14]; first compound 0.6325 µM): 1.02
- relative viability ([14]; first compound 6.325 µM): 1.13
- relative viability ([14]; first compound 20 µM): 1.11
- relative viability ([15]; first compound 0.2 µM): 1.03
- relative viability ([15]; first compound 0.6325 µM): 0.621
- relative viability ([15]; first compound 2 µM): 0.71
- relative viability ([15]; first compound 6.325 µM): 0.938
- relative viability ([15]; first compound 20 µM): 0.777
- relative viability ([16]; first compound 0.2 µM): 0.884
- relative viability ([16]; first compound 0.6325 µM): 0.821
- relative viability ([16]; first compound 2 µM): 0.961
- relative viability ([16]; first compound 6.325 µM): 0.968
- relative viability ([16]; first compound 20 µM): 1
- relative viability ([17]; first compound 0.2 µM): 1.39
- relative viability ([17]; first compound 0.6325 µM): 1.14
- relative viability ([17]; first compound 2 µM): 1.32
- relative viability ([17]; first compound 6.325 µM): 1.33
- relative viability ([17]; first compound 20 µM): 0.888
- relative viability ([18]; first compound 0.2 µM): 0.729
- relative viability ([18]; first compound 0.6325 µM): 0.677
- relative viability ([18]; first compound 2 µM): 0.589
- relative viability ([18]; first compound 6.325 µM): 0.601
- relative viability ([18]; first compound 20 µM): 0.383
- relative viability ([19]; first compound 0.2 µM): 1.38
- relative viability ([19]; first compound 0.6325 µM): 1.12
- relative viability ([19]; first compound 2 µM): 1.23
- relative viability ([19]; first compound 6.325 µM): 1.23
- relative viability ([19]; first compound 20 µM): 1.15
- relative viability ([20]; first compound 0.2 µM): 1.1
- relative viability ([20]; first compound 0.6325 µM): 0.93
- relative viability ([20]; first compound 2 µM): 1.06
- relative viability ([20]; first compound 6.325 µM): 1.03
- relative viability ([20]; first compound 20 µM): 0.023
- relative viability ([21]; first compound 0.2 µM): 0.997
- relative viability ([21]; first compound 0.6325 µM): 0.772
- relative viability ([21]; first compound 2 µM): 0.813
- relative viability ([21]; first compound 6.325 µM): 0.889
- relative viability ([21]; first compound 20 µM): 1.02

— the supplement of paper PMC10307832
